In BindingDB's records for doi:10.1016/j.bmc.2004.12.045 (Cnrs, 2005):
Structures can show the parent of a compound that is named as a salt.

Target: Glycogen synthase kinase-3 beta (Sus scrofa)
Experiment: Kinase activities were assayed in buffers containing substrate, enzyme, and inhibitor at 30 °C in the presence of 15 uM ATP/ [gamma-32P] ATP. 32P incorporation was measured with a scintillation counter. The IC50 is the inhibitor concentration, which inhibits 50% of kinase activity that catalyzes the transfer of the terminal phosphate from 32P l
Conditions: pH 7.5

| IC50 | SMILES |
| --- | --- |
| > 10 µM | Cc1c2c(c(C#N)c3c4ccccc4n(COCC[Si](C)(C)C)c13)C(=O)N(C)C2=O [2,4-dimethyl-1,3-dioxo-5-{[2-(trimethylsilyl)ethoxy]methyl}-1H,2H,3H,5H-pyrrolo[3,4-b]carbazole-10-carbonitrile] |
| > 10 µM | Cc1c2c(c(CN)c3c4ccccc4n(COCC[Si](C)(C)C)c13)C(=O)N(C)C2=O [10-(aminomethyl)-2,4-dimethyl-5-{[2-(trimethylsilyl)ethoxy]methyl}-1H,2H,3H,5H-pyrrolo[3,4-b]carbazole-1,3-dione] |
| > 10 µM | Cc1c2c(c(CN)c3c4ccccc4n(COCC[Si](C)(C)C)c13)C(=O)N(Cc1ccccc1)C2=O [10-(aminomethyl)-2-benzyl-4-methyl-5-{[2-(trimethylsilyl)ethoxy]methyl}-1H,2H,3H,5H-pyrrolo[3,4-b]carbazole-1,3-dione] |
| > 10 µM | Cc1c2c(c(CNC(=O)CN(C)C)c3c4ccccc4n(COCC[Si](C)(C)C)c13)C(=O)N(C)C2=O [N-[(2,4-dimethyl-1,3-dioxo-5-{[2-(trimethylsilyl)ethoxy]methyl}-1H,2H,3H,5H-pyrrolo[3,4-b]carbazol-10-yl)methyl]-2-(dimethylamino)acetamide] |
| > 10 µM | Cc1c2c(c(CNC(=O)CCN(C)C)c3c4ccccc4n(COCC[Si](C)(C)C)c13)C(=O)N(C)C2=O [N-[(2,4-dimethyl-1,3-dioxo-5-{[2-(trimethylsilyl)ethoxy]methyl}-1H,2H,3H,5H-pyrrolo[3,4-b]carbazol-10-yl)methyl]-3-(dimethylamino)propanamide] |
| > 10 µM | Cc1c2c(c(CNC(=O)CN(C)C)c3c4ccccc4n(COCC[Si](C)(C)C)c13)C(=O)N(Cc1ccccc1)C2=O [N-[(2-benzyl-4-methyl-1,3-dioxo-5-{[2-(trimethylsilyl)ethoxy]methyl}-1H,2H,3H,5H-pyrrolo[3,4-b]carbazol-10-yl)methyl]-2-(dimethylamino)acetamide] |
| > 10 µM | Cc1c2c(c(CNC(=O)CCN(C)C)c3c4ccccc4n(COCC[Si](C)(C)C)c13)C(=O)N(Cc1ccccc1)C2=O [N-[(2-benzyl-4-methyl-1,3-dioxo-5-{[2-(trimethylsilyl)ethoxy]methyl}-1H,2H,3H,5H-pyrrolo[3,4-b]carbazol-10-yl)methyl]-3-(dimethylamino)propanamide] |

The remaining lines, values behind:

| SMILES | IC50 |
| --- | --- |
| Cc1cc(C)c(S(=O)(=O)NCc2nc3c(c4c2[nH]c2ccccc24)CNC3=O)c(C)c1 [2,4,6-Trimethyl-N-(3-oxo-1,2,3,6-tetrahydro-2,4,6-triaza-cyclopenta[c]fluoren-5-ylmethyl)-benzene-sulfonamide] | 1.5 µM |
| Cc1nc2c(c3c1[nH]c1ccccc13)CN(CCN(C)C)C2=O [2-(2-Dimethylaminoethyl)-5-methyl-1,2-di-hydro-6H-2,4,6-triaza-cyclopenta[c]fluoren-3-one] | > 10 µM |
| CN(C)CC(=O)NCc1nc2c(c3c1[nH]c1ccccc13)CNC2=O [2-(dimethylamino)-N-({5-oxo-4,7,10-triazatetracyclo[7.7.0.0^{2,6}.0^{11,16}]hexadeca-1(9),2(6),7,11(16),12,14-hexaen-8-yl}methyl)acetamide] | 8 µM |
| O=C1c2nc(-c3ccccc3)c3[nH]c4ccccc4c3c2CN1Cc1ccccc1 [2-Benzyl-5-phenyl-1,2-dihydro-6H-2,4,6-triazacyclopenta[c]fluoren-3-one] | > 10 µM |
| Cc1cc2c(c3c4ccccc4n(COCC[Si](C)(C)C)c13)C(=O)N(CCN(C)C)C2=O [2-[2-(dimethylamino)ethyl]-5-methyl-6-{[2-(trimethylsilyl)ethoxy]methyl}pyrrolo[3,4-c]carbazole-1,3(2H,6H)-dione] | > 10 µM |
| Cc1cc2c(c3c4ccccc4n(COCC[Si](C)(C)C)c13)C(=N)N(CCN(C)C)C2=O [4-[2-(dimethylamino)ethyl]-3-imino-8-methyl-10-{[2-(trimethylsilyl)ethoxy]methyl}-4,10-diazatetracyclo[7.7.0.0^{2,6}.0^{11,16}]hexadeca-1(9),2(6),7,11(16),12,14-hexaen-5-one] | > 10 µM |
| Cc1nc2c(c3c1[nH]c1ccccc13)CNC2=O [5-Methyl-1,2-dihydro-6H-2,4,6-triaza-cyclopenta[c]fluoren-3-one] | > 10 µM |
| Cc1cc2c(c3c4ccccc4n(COCC[Si](C)(C)C)c13)CNC2=O [5-Methyl-6-(2-trimethylsilanyl-ethoxymethyl)-1,2-dihydro-6H-pyrrolo[3,4-c]carbazol-3-one] | > 10 µM |
| NCc1nc2c(c3c1[nH]c1ccccc13)CNC2=O [8-(aminomethyl)-4,7,10-triazatetracyclo[7.7.0.0^{2,6}.0^{11,16}]hexadeca-1(9),2(6),7,11(16),12,14-hexaen-5-one hydrochloride] | 5.5 µM |
| Cc1c2c(c(C#N)c3c4cc(Cl)ccc4n(COCC[Si](C)(C)C)c13)C(=O)N(C)C2=O [8-chloro-2,4-dimethyl-1,3-dioxo-5-{[2-(trimethylsilyl)ethoxy]methyl}-1H,2H,3H,5H-pyrrolo[3,4-b]carbazole-10-carbonitrile] | > 10 µM |
| Cc1cc2c(c3c1[nH]c1ccccc13)CNC2=O [8-methyl-4,10-diazatetracyclo[7.7.0.0^{2,6}.0^{11,16}]hexadeca-1(9),2(6),7,11(16),12,14-hexaen-5-one] | > 10 µM |
| Cc1nc2c(c3c4ccccc4n(CCN(C)C)c13)CNC2=O [10-[2-(dimethylamino)ethyl]-8-methyl-4,7,10-triazatetracyclo[7.7.0.0^{2,6}.0^{11,16}]hexadeca-1(9),2(6),7,11(16),12,14-hexaen-5-one] | 7 µM |
| Cc1c2c(c(CNC(=O)CN(C)C)c3c1[nH]c1ccccc13)C(=O)N(C)C2=O [{[({2,4-dimethyl-1,3-dioxo-1H,2H,3H,5H-pyrrolo[3,4-b]carbazol-10-yl}methyl)carbamoyl]methyl}dimethylazanium chloride] | > 10 µM |
| Cc1c2c(c(CNC(=O)CN(C)C)c3c1[nH]c1ccccc13)C(=O)N(Cc1ccccc1)C2=O [{[({2-benzyl-4-methyl-1,3-dioxo-1H,2H,3H,5H-pyrrolo[3,4-b]carbazol-10-yl}methyl)carbamoyl]methyl}dimethylazanium chloride] | > 10 µM |
